One compound from patent US20230310399A1, “COMBINATORIAL THERAPEUTIC SYSTEMS AND METHODS THAT INCLUDE SYSTEMIC, CENTRALLY AND PERIPHERALLY ACTING ANALGESICS” (COGNIFISENSE, INC., priority 2020, published 2023) can be followed below.

Entries after “also recorded” stand apart in the source; their conditions may differ.

In the assay the test system is patient's amount of pain. The assay can be described thus: Potential patient responses to combinatorial therapy: amount of pain over time (FIGS. 5A-5C). To be noted: combinatorial therapeutic system with VRNT; potential individual patient responses. It is filed as in vivo, patients. The text has this:
FIGS. 5A-5C illustrate exemplary graphs of potential effects of combinatorial therapeutic systems/methods employing oliceridine and VRNT on a patient's amount of pain over time; and
The synergistic effects of the disclosed combinatorial therapeutic systems/methods can be exemplified in a plurality of responses. For example, FIGS. 5A-5C illustrate a combinatorial therapy using oliceridine (as the systemic, centrally and peripherally acting analgesic) and VRNT (as the artificial sensory experience) with different potential patient responses. As many, if not all, patients may experience the synergistic benefits afforded by the disclosed combinatorial therapeutic systems/methods as an average benefit, the individual-specific responses may be different.

Consider `COc1ccsc1CNCC[C@@]1(c2ccccn2)CCOC2(CCCC2)C1` [oliceridine], for which the “patient's amount of pain over time” value was “constant or linear decrease in pain over time; also recorded: cyclical decrease and increase in pain levels over time with an overall decreasing pain level; also recorded: stepwise reduction in pain levels”.
